Measurements reported in patent US20260226006A1, “INDOLE COMPOUND, PREPARATION METHOD THEREFOR AND USE THEREOF” (SUZHOU MERNA THERAPEUTICS CO. LTD, priority 2023, published 2026).

Key:
paw plantar skin of rats = experiment: Rat models with hand-foot skin reaction, topical ointment (Example 22); format: in vivo, SD rats; details: for Incidence rate: 30 days; for incidence rate of hand-foot skin reaction at a drug application site: compounds at a mass content of 1% in ointment; for incidence rate of hand-foot skin reaction in all paws of the rats: compounds at mass contents of 3% and 10% in ointment; for formation of blisters, inflammatory cell infiltration in the dermis and skin congestion (pathological scoring) / formation of blisters, inflammatory cell infiltration in the dermis and skin congestion (tissue staining): paw plantar skin of modeled rats; for formation of blisters, inflammatory cell infiltration in the dermis and skin congestion (pathological scoring) / stratum corneum thickness of the paw plantar skin of the modeled rats / formation of blisters, inflammatory cell infiltration in the dermis and skin congestion (tissue staining): topical ointment; for differentiation of keratinocytes both in vitro and in vivo: summary of Examples 21 and 22
Protocol: After adaptive feeding for one week, SD rats (with a body weight of approximately 200 g) were randomly divided into groups according to the body weight, with 12 rats in each group. Modeling drugs (including sorafenib, erlotinib, afatinib, and osimertinib) were respectively dissolved in a solution containing 5% of DMSO, 45% of PEG400, and 50% of H2O, and the modeling drugs were diluted to required concentrations and then administered once daily by gavage at doses shown in Table 3. After administration by gavage for 1 hour, 0.05 g of ointments containing different mass proportions of test compounds were evenly applied to left paws of the rats, a blank matrix ointment was applied to right paws of the rats to serve as a self-control, and no ointment was applied to the rats in a blank control group. After drug application, four limbs were continuously immobilized for 2 hours, then wiped with clean water to remove the residual drugs, removed from immobilization, and restored to free movement. The modeling drugs, the blank matrix ointment, and the ointments containing the test compounds were all administered once daily. After continuous administration for 30 days, the rats were euthanized, and paw plantar skin tissues were collected, fixed in 10% neutral formalin, […]. The ointments for the test compounds were prepared by mixing the compounds, white beeswax, white petrolatum, and light liquid paraffin in specific ratios (weight ratios of 3 ointments were respectively 1:18:58:23, 3:18:57:22, and 10:20:40:30). The blank matrix ointment was prepared by mixing white beeswax, white petrolatum, and light liquid paraffin in a specific ratio (weight ratio of 18:60:22).
Tissue staining: After dewaxing and rehydration, the paw plantar skin tissue sections of the above rats were stained in a hematoxylin solution for several minutes, cleaned, and placed in 1% acid alcohol for soaking until the sections faded to light blue-red. After cleaning with running water for 5 minutes, the sections were stained with eosin for 2-3 minutes, cleaned to remove excess dyes, dehydrated, then permeabilized by adding xylene for several minutes, and sealed and fixed with a neutral resin. The stratum corneum was observed under an optical microscope, and the thickness of the epidermal stratum corneum was measured using Dmetrix software.
Immunohistochemical staining: After dewaxing and hydration, the paw plantar skin tissue sections of the above rats were incubated with 3% H2O2 at room temperature for 30 minutes and blocked with 10% goat serum for 30 minutes after antigen retrieval. A KRT1 antibody (Abcam, ab93652) and a Loricrin antibody (Abcam, ab183646) were added dropwise, the sections were incubated overnight at 4° C., and an HRP secondary antibody (ZSGB-BIO, PV-6001) and a DAB kit (ZSG-BIO, ZLI9017) were added for color development. The sections were re-stained with hematoxylin, cleaned, and sealed and fixed with a neutral resin, and the expression amounts of KRT1 and Loricrin were observed under an optical microscope.
An incidence rate calculation method involves a proportion of animals in each group meeting the above criteria for determining successful modeling, that is, incidence rate=(number of successfully modeled rats/total number of rats in the group)*100%. […]

HaCat cells = experiment: m6A methylation level of human HaCat keratinocytes, EpiQuik m6A RNA methylation quantification kit (Example 20); format: cell-based; details: for abnormal increase in the RNA m6A level of human keratinocytes caused by chemotherapeutic drugs and multikinase inhibitors: 400 nM compound after 50 nM drug; for m6A fold change relative to control group 1: HaCat cells, 24 hours
Protocol: HaCat cells were cultured in a DMEM culture medium containing 10% fetal bovine serum, 100 U/mL penicillin, and 100 μg/mL streptomycin. Culture dishes were placed in an incubator containing 5% CO2 for culture at 37° C. for 24 hours. An equal volume of DMSO was added in control group 1, 50 nM sorafenib, capecitabine, docetaxel, and osimertinib were respectively added in control groups A, B, C, and D, and 400 nM test compounds or nicotinamide were respectively added in sample groups A1-17, B1-17, C1-17, and D1-17 after the addition of 50 nM corresponding compounds. The cells were continuously cultured for 24 hours, washed with PBS, and then collected by high-speed centrifugation. Total RNA was extracted using a Trizol reagent (Sigma Aldrich), and RNA m6A methylation of a sample was quantitatively detected using an EpiQuik m6A RNA methylation quantification kit. The concentrations of positive control samples for a standard curve were 0.01 ng/μl, 0.02 ng/μl, 0.05 ng/μl, 0.1 ng/μl, 0.2 ng/μl, and 0.5 ng/μl. The absorbance at 450 nm was read using a microplate reader (Tecan GENios). A quantitative calculation formula for m6A is as follows:
m6A (ng)=(absorbance of sample well−absorbance of background well)/slope of standard curve m6A (%)=m6A (ng)/RNA amount of sample (ng)*100%.

[1] = afatinib 50 mg/kg, 1% compound ointment on left paw, left paw
[2] = afatinib 50 mg/kg, 1% compound ointment on left paw, right paw (blank matrix ointment)
[3] = afatinib 50 mg/kg, 3% compound ointment on left paw, left paw
[4] = afatinib 50 mg/kg, 3% compound ointment on left paw, right paw (blank matrix ointment)
[5] = afatinib 50 mg/kg, 10% compound ointment on left paw, left paw
[6] = afatinib 50 mg/kg, 10% compound ointment on left paw, right paw (blank matrix ointment)
[7] = erlotinib 70 mg/kg, 1% compound ointment on left paw, left paw
[8] = erlotinib 70 mg/kg, 1% compound ointment on left paw, right paw (blank matrix ointment)
[9] = erlotinib 70 mg/kg, 3% compound ointment on left paw, left paw
[10] = erlotinib 70 mg/kg, 3% compound ointment on left paw, right paw (blank matrix ointment)
[11] = erlotinib 70 mg/kg, 10% compound ointment on left paw, left paw
[12] = erlotinib 70 mg/kg, 10% compound ointment on left paw, right paw (blank matrix ointment)
[13] = osimertinib 60 mg/kg, 1% compound ointment on left paw, left paw
[14] = osimertinib 60 mg/kg, 1% compound ointment on left paw, right paw (blank matrix ointment)
[15] = osimertinib 60 mg/kg, 3% compound ointment on left paw, right paw (blank matrix ointment)
[16] = osimertinib 60 mg/kg, 10% compound ointment on left paw, left paw
[17] = osimertinib 60 mg/kg, 10% compound ointment on left paw, right paw (blank matrix ointment)
[18] = sorafenib 100 mg/kg, 1% compound ointment on left paw, left paw
[19] = sorafenib 100 mg/kg, 1% compound ointment on left paw, right paw (blank matrix ointment)
[20] = sorafenib 100 mg/kg, 3% compound ointment on left paw, left paw
[21] = sorafenib 100 mg/kg, 3% compound ointment on left paw, right paw (blank matrix ointment)
[22] = sorafenib 100 mg/kg, 10% compound ointment on left paw, left paw
[23] = sorafenib 100 mg/kg, 10% compound ointment on left paw, right paw (blank matrix ointment)
[24] = 50 nM capecitabine + 400 nM test compound
[25] = 50 nM docetaxel + 400 nM test compound
[26] = 50 nM osimertinib + 400 nM test compound
[27] = 50 nM sorafenib + 400 nM test compound
[28] = osimertinib 60 mg/kg, 3% compound ointment on left paw, left paw

Row | SMILES | Incidence rate (paw plantar skin of rats; [1]) | Incidence rate (paw plantar skin of rats; [2]) | Incidence rate (paw plantar skin of rats; [3]) | Incidence rate (paw plantar skin of rats; [4]) | Incidence rate (paw plantar skin of rats; [5]) | Incidence rate (paw plantar skin of rats; [6]) | incidence rate of hand-foot skin reaction at a drug application site (paw plantar skin of rats) | incidence rate of hand-foot skin reaction in all paws of the rats (paw plantar skin of rats) | Incidence rate (paw plantar skin of rats; [7]) | Incidence rate (paw plantar skin of rats; [8]) | Incidence rate (paw plantar skin of rats; [9]) | Incidence rate (paw plantar skin of rats; [10]) | Incidence rate (paw plantar skin of rats; [11]) | Incidence rate (paw plantar skin of rats; [12]) | Incidence rate (paw plantar skin of rats; [13]) | Incidence rate (paw plantar skin of rats; [14]) | m6A fold change relative to control group 1 (HaCat cells; [24]) | m6A fold change relative to control group 1 (HaCat cells; [25]) | m6A fold change relative to control group 1 (HaCat cells; [26]) | m6A fold change relative to control group 1 (HaCat cells; [27]) | also measured
1 | NC(=O)C1CCCc2c1[nH]c1ccc(Cl)cc21 (centres unmarked) [Compound 2, 6-chloro-2,3,4,9-tetrahydro-1H-carbazole-1-carboxamide] | 2/12 (17%) | 7/12 (58%) | 2/12 (17%) | 5/12 (42%) | 1/12 (8%) | 5/12 (42%) | significantly decrease | significantly decrease | 3/12 (25%) | 10/12 (83%) | 2/12 (17%) | 4/12 (33%) | 1/12 (8%) | 4/12 (33%) | 2/12 (17%) | 9/12 (75%) | 2.3 | 3.3 | 2.2 | 2.4 | Incidence rate (paw plantar skin of rats; [15]): 4/12 (33%); Incidence rate (paw plantar skin of rats; [16]): 0/12 (0%); Incidence rate (paw plantar skin of rats; [17]): 3/12 (25%); formation of blisters, inflammatory cell infiltration in the dermis and skin congestion (pathological scoring) (paw plantar skin of rats): effectively improve; Incidence rate (paw plantar skin of rats; [18]): 3/12 (25%); Incidence rate (paw plantar skin of rats; [19]): 8/12 (67%); Incidence rate (paw plantar skin of rats; [20]): 1/12 (8%); Incidence rate (paw plantar skin of rats; [21]): 5/12 (42%); Incidence rate (paw plantar skin of rats; [22]): 0/12 (0%); Incidence rate (paw plantar skin of rats; [23]): 5/12 (42%); differentiation of keratinocytes both in vitro and in vivo (paw plantar skin of rats): effectively inhibit; stratum corneum thickness of the paw plantar skin of the modeled rats (paw plantar skin of rats): effectively decrease; abnormal increase in the RNA m6A level of human keratinocytes caused by chemotherapeutic drugs and multikinase inhibitors (HaCat cells): effectively inhibit
2 | NC(=O)[C@H]1CCCc2c1[nH]c1ccc(Cl)cc21 [Compound 2b, (S)-6-chloro-2,3,4,9-tetrahydro-1H-carbazole-1-carboxamide] | 3/12 (25%) | 9/12 (75%) | 2/12 (17%) | 4/12 (33%) | 0/12 (0%) | 3/12 (25%) | significantly decrease | significantly decrease | 3/12 (25%) | 10/12 (83%) | 2/12 (17%) | 5/12 (42%) | 1/12 (8%) | 4/12 (33%) | 2/12 (17%) | 8/12 (67%) | 1.1 | 1.0 | 1.2 | 1.4 | Incidence rate (paw plantar skin of rats; [28]): 2/12 (17%); Incidence rate (paw plantar skin of rats; [15]): 4/12 (33%); Incidence rate (paw plantar skin of rats; [16]): 0/12 (0%); Incidence rate (paw plantar skin of rats; [17]): 3/12 (25%); formation of blisters, inflammatory cell infiltration in the dermis and skin congestion (pathological scoring) (paw plantar skin of rats): effectively improve; formation of blisters, inflammatory cell infiltration in the dermis and skin congestion (tissue staining) (paw plantar skin of rats): effectively improve; Incidence rate (paw plantar skin of rats; [18]): 2/12 (17%); Incidence rate (paw plantar skin of rats; [19]): 9/12 (75%); Incidence rate (paw plantar skin of rats; [20]): 2/12 (17%); Incidence rate (paw plantar skin of rats; [21]): 4/12 (33%); Incidence rate (paw plantar skin of rats; [22]): 0/12 (0%); Incidence rate (paw plantar skin of rats; [23]): 4/12 (33%); differentiation of keratinocytes both in vitro and in vivo (paw plantar skin of rats): effectively inhibit; stratum corneum thickness of the paw plantar skin of the modeled rats (paw plantar skin of rats): effectively decrease; abnormal increase in the RNA m6A level of human keratinocytes caused by chemotherapeutic drugs and multikinase inhibitors (HaCat cells): effectively inhibit
3 | NC(=O)C1c2[nH]c3ccc(Cl)cc3c2C2CCC1C2 [Compound 5a, (S)-2-chloro-5,6,7,8,9,10-hexahydro-7,10-methanocyclohepta[b]indole-6-carboxamide] | 1/12 (8%) | 9/12 (75%) | 1/12 (8%) | 4/12 (33%) | 0/12 (0%) | 1/12 (8%) | significantly decrease | significantly decrease | 2/12 (17%) | 9/12 (75%) | 2/12 (17%) | 5/12 (42%) | 0/12 (0%) | 0/12 (0%) | 2/12 (17%) | 9/12 (75%) | 1.2 | 1.0 | 1.2 | 1.0 | Incidence rate (paw plantar skin of rats; [28]): 1/12 (8%); Incidence rate (paw plantar skin of rats; [15]): 4/12 (33%); Incidence rate (paw plantar skin of rats; [16]): 0/12 (0%); Incidence rate (paw plantar skin of rats; [17]): 1/12 (8%); formation of blisters, inflammatory cell infiltration in the dermis and skin congestion (pathological scoring) (paw plantar skin of rats): effectively improve; formation of blisters, inflammatory cell infiltration in the dermis and skin congestion (tissue staining) (paw plantar skin of rats): effectively improve; Incidence rate (paw plantar skin of rats; [18]): 1/12 (8%); Incidence rate (paw plantar skin of rats; [19]): 10/12 (83%); Incidence rate (paw plantar skin of rats; [20]): 1/12 (8%); Incidence rate (paw plantar skin of rats; [21]): 5/12 (42%); Incidence rate (paw plantar skin of rats; [22]): 0/12 (0%); Incidence rate (paw plantar skin of rats; [23]): 2/12 (17%; differentiation of keratinocytes both in vitro and in vivo (paw plantar skin of rats): effectively inhibit; stratum corneum thickness of the paw plantar skin of the modeled rats (paw plantar skin of rats): effectively decrease; abnormal increase in the RNA m6A level of human keratinocytes caused by chemotherapeutic drugs and multikinase inhibitors (HaCat cells): effectively inhibit
4 | NC(=O)c1cccnc1 [Nicotinamide, nicotinamide] |  |  |  |  |  |  |  |  |  |  |  |  |  |  |  |  | 4.5 | 5.4 | 5.0 | 4.7 | 
